Measured values as given in patent US5039446A, “Liquid detergent with stabilized enzyme” (Genencor International, Inc., priority 1990, dated 1991).
Where two headings read alike, the source gives them in different places.

How the values were obtained:
[1] = target: subtilisin; conditions: inhibitor of subtilisin, read-out: inhibition constant (KI), cited from earlier work
[2] = test system: subtilisin; experiment: Example 1: incubation of subtilisin with or without PBA at pH 7.5 and 37 degrees, activity measured after 1:500 dilution (succinyl-L-Ala-L-Ala-L-Pro-L-Phe-p-nitroanilide hydrolysis, 410 nm); type: biochemical; conditions: pH 7.5, 37 degrees celsius, even in the presence of 10 mm EDTA
Protocol: Enzyme activity was measured after a 1:500 dilution by following the hydrolysis of the substrate succinyl-L-Ala-L-Ala-L-Pro-L-Phe-P-nitroanilide. The reaction was monitored by following the release of p-nitroaniline spectrophotometrically at 410 nm. One unit of activity is defined as the amount of enzyme that produces A410/min of 1.0 at 25'C. in 0.1M Tris pH 8.6, […] substrate.

Row | SMILES | Ki [1] [µM] | Ki ([1]; listed as Leupeptin) [µM] | Ki ([1]; listed as Phenyl boronic acid) [µM] | stabilization of subtilisin (in words) [2]
1 | CCCCB(O)O [butane boronic acid] | 7200 | – | – | –
2 | CC(=O)N[C@@H](CC(C)C)C(=O)N[C@@H](CC(C)C)C(=O)N[C@H](C=O)CCCNC(=N)N [leupeptin] | 160 | 230 | – | –
3 | OB(O)c1ccccc1 [phenylboronic acid] | 230 | – | 160 | very effective agent for stabilization of subtilisin
